Data from ChEMBL document CHEMBL2380282, “CROSS: an efficient workflow for reaction-driven rescaffolding and side-chain optimization using robust chemical reactions and available reagents” (J Med Chem, 2013).

Biological target: Prothrombin (Homo sapiens, UniProt P00734)
Assay: Inhibition of thrombin (unknown origin)

| Ki | Compound |
| --- | --- |
| 0.01 µM | COc1ccc(OC)c(S(=O)(=O)NC2CCCCN(CC(=O)NCc3ccc(C(=N)N)cc3)C2=O)c1 (configuration not stated) |
| 0.0158 µM | N=C(N)c1ccc(CNC(=O)CN2C(=O)C(NS(=O)(=O)c3ccc4c(c3)CCO4)CCc3ccccc32)cc1 (configuration not stated) |
